Assay results from patent publication US20250018047A1, “METHODS AND COMPOSITIONS FOR TARGETED PROTEIN DEGRADATION” (Ranok Therapeutics (Hangzhou) Co. Ltd., priority 2021, published 2025).
pIC50: −log10 of the molar value.

What was measured:
[1] = tested on: AsPC-1 human pancreatic adenocarcinoma; experiment: CellTiter-Glo cancer cell line proliferation assay, AsPC-1; type: cell-based; conditions: Homo sapiens, ASPC1, 24 hr
Experimental: (§1) Cell lines were cultured according to ATCC and recommendations.
(§2) CellTiter-Glo® Reagent Cancer Cell Line Proliferation Assays
(§3) Cells were plated in 96-well tissue culture plates at 4,000 cells/well and incubated at 37° C./5% CO2 for 24 hr in 100 μl of media. […] Cells were then treated with test compounds at various concentrations with a final concentration of 0.5% DMSO/well, and then incubated at 37° C./5% CO2 for 24 hr. 100 μl of CellTiter-Glo® Reagent (Promega Corporation, Madison, WI) was added to each well and processed according manufacturer's protocol. Results were analyzed and IC50-values were calculated in GraphPad 7 software.

[2] = tested on: A-427 human lung carcinoma; experiment: CellTiter-Glo cancer cell line proliferation assay, A-427; type: cell-based; conditions: Homo sapiens, A-427, 24 hr, read-out: A427 at 24 hrs, IC50
Experimental: as §1, §2, §3

KRAS(G12D)/SOS1 = molecular target: T1, KRAS(G12D)/SOS1 (Homo sapiens, UniProt P01116, G12D); experiment: KRAS(G12D)/SOS1 homogeneous time-resolved fluorescence (HTRF) assay; type: binding; conditions: absence of GTP, 4° C. for 3 hr
T1 construct: purchased Cisbio 63ADK000CB16PEG
T1 sequence (P01116 1-188 isoform P01116-2 G12D): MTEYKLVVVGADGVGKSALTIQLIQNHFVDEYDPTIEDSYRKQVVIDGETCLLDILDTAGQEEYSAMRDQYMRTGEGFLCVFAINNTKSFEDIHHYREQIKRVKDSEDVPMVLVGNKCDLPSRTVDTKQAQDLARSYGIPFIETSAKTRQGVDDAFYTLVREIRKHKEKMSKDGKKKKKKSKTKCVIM
Experimental: The test compound was mixed and incubated with reaction components, incubated in a sealed plate at 4° C. for 3 hr and fluorescence was measured using a PerkinElmer Envision plate reader.

SMILES	pIC50 [1]	pIC50 [2]	pIC50 (KRAS(G12D)/SOS1)
C#Cc1cccc2cc(O)cc(-c3ncc4c(N5CC6CCC(C5)N6)nc(OCC5(CN6CCN(CC7CCN(CC(=O)N[C@@H](C(=O)N8C[C@@H](O)C[C@@H]8C(=O)NCc8ccc(-c9scnc9C)cc8)C(C)(C)C)CC7)CC6)CC5)nc4c3F)c12 [Compound 82]	< 6.00	< 6.00	
CN1C[C@H](N2CCC(C(=O)N3CCN(c4ccc5c(c4)C(=O)N(C4CCC(=O)NC4=O)C5=O)CC3)CC2)C[C@@H]1COc1nc(N2CC3CCC(C2)N3)c2cnc(-c3cc(O)cc4ccccc34)c(F)c2n1 (some centres unmarked) [Compound 46]	< 6.00	< 6.00	> 7.00
CN1C[C@H](N2CCN(C(=O)C3CCN(c4ccc5c(c4)CN(C4CCC(=O)NC4=O)C5=O)CC3)CC2)C[C@@H]1COc1nc(N2CC3CCC(C2)N3)c2cnc(-c3cc(O)cc4ccccc34)c(F)c2n1 (some centres unmarked) [Compound 44]	< 6.00	< 6.00	> 7.00
C#Cc1cccc2cccc(-c3ncc4c(N5CC6CCC(C5)N6)nc(OC[C@H]5C[C@@H](N6CCN(CCC7CCN(c8ccc9c(c8)C(=O)N(C8CCC(=O)NC8=O)C9=O)CC7)CC6)CN5C)nc4c3F)c12 (some centres unmarked) [Compound 74]		< 6.00	> 7.00
CN1CC(N2CCC(C(=O)NCCOCCOc3ccc4c(c3)C(=O)N(C3CCC(=O)NC3=O)C4=O)CC2)C[C@@H]1COc1nc(N2CC3CCC(C2)N3)c2cnc(-c3cc(O)cc4ccccc34)c(F)c2n1 (some centres unmarked) [Compound 54]		< 6.00	> 7.00
O=C1CCC(N2C(=O)c3ccc(CN4CCN(CC5(COc6nc(N7CC8CCC(C7)N8)c7cnc(-c8cc(O)cc9ccccc89)c(F)c7n6)CC5)CC4)cc3C2=O)C(=O)N1 (centres unmarked) [Compound 41]	< 6.00	< 6.00	> 7.00
C#Cc1c(F)ccc2cc(O)cc(-c3ncc4c(N5CC6CCC(C5)N6)nc(OCC5(CN6CCC7(CC6)CCN(c6ccc8c(c6)CN(C6CCC(=O)NC6=O)C8=O)CC7)CC5)nc4c3F)c12 (centres unmarked) [Compound 114]			> 7.00
C#Cc1c(F)ccc2cc(O)cc(-c3ncc4c(N5CC6CCC(C5)N6)nc(OCC5(CN6CCC(CN7CCC(c8ccc(NC9CCC(=O)NC9=O)cc8)CC7)CC6)CC5)nc4c3F)c12 (centres unmarked) [Compound 113]			> 7.00
C#Cc1cccc2cc(O)cc(-c3nc(OC)c4c(N5CC6CCC(C5)N6C)nc(OCC5(CN6CCN(CC7CCN(c8ccc9c(c8)CN(C8CCC(=O)NC8=O)C9=O)CC7)CC6)CC5)nc4c3F)c12 (centres unmarked) [Compound 105]	< 6.00		> 7.00
C#Cc1c(F)ccc2cc(O)cc(-c3ncc4c(N5CC6CCC(C5)N6C(=O)C(F)(F)F)nc(OCC5(CN6CCN(CC7CCN(c8ccc9c(c8)CN(C8CCC(=O)NC8=O)C9=O)CC7)CC6)CC5)nc4c3F)c12 (centres unmarked) [Compound 108]			> 7.00
C#Cc1c(F)ccc2cc(O)cc(-c3ncc4c(N5CC6CCC(C5)N6)nc(OCC5(CN(C)CC6CCN(c7ccc8c(c7)C(=O)N(C7CCC(=O)NC7=O)C8)CC6)CC5)nc4c3F)c12 (centres unmarked) [Compound 89]	< 6.00	< 6.00	
C#Cc1cccc2cc(O)cc(-c3ncc4c(N5CC6CCC(C5)N6)nc(OCC5(CN6CCN(C(=O)N7CCN(c8ccc9c(c8)CN(C8CCC(=O)NC8=O)C9=O)CC7)CC6)CC5)nc4c3F)c12 (centres unmarked) [Compound 88]	6.00 to 7.00	< 6.00	
COc1cc(-c2ncc3c(N4CC5CCC(C4)N5)nc(OCC4(CN5CCN(CC6CCN(c7ccc8c(c7)CN(C7CCC(=O)NC7=O)C8=O)CC6)CC5)CC4)nc3c2F)c2ccccc2c1 (centres unmarked) [Compound 70]		< 6.00	< 6.00
C#Cc1cccc2cc(O)cc(-c3ncc4c(N5CC6CCC(C5)N6)nc(OC[C@H]5CC[C@@H](CN6CCN(CC7CCN(c8ccc9c(c8)CN(C8CCC(=O)NC8=O)C9=O)CC7)CC6)N5C)nc4c3F)c12 (some centres unmarked) [Compound 69]		< 6.00	> 7.00
C#Cc1cccc2cc(O)cc(-c3ncc4c(N5CC6CCC(C5)N6)nc(OCC5(CN6CCN(Cc7ccc8c(c7)C(=O)N(C7CCC(=O)NC7=O)C8=O)CC6)CC5)nc4c3F)c12 (centres unmarked) [Compound 65]		< 6.00	> 7.00
C#Cc1c(F)ccc2cc(O)cc(-c3nc(OC)c4c(N5CC6CCC(C5)N6)nc(OCC5(CN6CCN(C7CCN(c8ccc9c(c8)C(=O)N(C8CCC(=O)NC8=O)C9=O)CC7)CC6)CC5)nc4c3F)c12 (centres unmarked) [Compound 115]			> 7.00
CN1[C@@H](COc2nc(N3CC4CCC(C3)N4)c3cnc(-c4cc(O)cc5ccccc45)c(F)c3n2)CC[C@H]1CN1CCN(CC2CCN(c3ccc4c(c3)C(=O)N(C3CCC(=O)NC3=O)C4=O)CC2)CC1 (some centres unmarked) [Compound 60]		< 6.00	> 7.00
C#Cc1c(F)ccc2cc(O)cc(-c3ncc4c(N5CC6CCC(C5)N6)nc(OCC5(CN6CCN(Cc7ccc8c(c7)C(=O)N(C7CCC(=O)NC7=O)C8=O)CC6)CC5)nc4c3F)c12 (centres unmarked) [Compound 64]		< 6.00	> 7.00

SMILES	pIC50 [1]	pIC50 [2]	pIC50 (KRAS(G12D)/SOS1)
O=C1CCC(N2Cc3cc(N4CCC(CN5CCN(CC6(COc7nc(N8CC9CCC(C8)N9)c8cnc(-c9cc(O)cc%10ccccc9%10)c(F)c8n7)CC6)CC5)CC4)ccc3C2=O)C(=O)N1 (centres unmarked) [Compound 52]		6.00 to 7.00	> 7.00
C#Cc1c(F)ccc2cc(O)cc(-c3ncc4c(N5CC6CCC(C5)N6C(=O)CC#N)nc(OCC5(CN6CCN(CC7CCN(c8ccc9c(c8)CN(C8CCC(=O)NC8=O)C9=O)CC7)CC6)CC5)nc4c3F)c12 (centres unmarked) [Compound 110]			> 7.00
C#Cc1cccc2cc(O)cc(-c3ncc4c(N5CC6CCC(C5)N6)nc(OCC5(CN6CCN(CC7CCN(c8cc9c(cc8F)C(=O)N(C8CCC(=O)NC8=O)C9)CC7)CC6)CC5)nc4c3F)c12 (centres unmarked) [Compound 90]	> 7.00	> 7.00	
C#Cc1cccc2cc(O)cc(-c3ncc4c(N5CC6CCC(C5)N6)nc(OCC5(CN6CCN(Cc7ccc8c(c7)CN(C7CCC(=O)NC7=O)C8=O)CC6)CC5)nc4c3F)c12 (centres unmarked) [Compound 61]		6.00 to 7.00	> 7.00
CN(CC1CCN(c2ccc3c(c2)C(=O)N(C2CCC(=O)NC2=O)C3=O)CC1)CC1(COc2nc(N3CC4CCC(C3)N4)c3cnc(-c4cc(O)cc5ccccc45)c(F)c3n2)CC1 (centres unmarked) [Compound 75]		< 6.00	> 7.00
C#Cc1cccc2cccc(-c3ncc4c(N5CC6CCC(C5)N6)nc(OCC5(CN(C)CC6CCN(c7ccc8c(c7)C(=O)N(C7CCC(=O)NC7=O)C8=O)CC6)CC5)nc4c3F)c12 (centres unmarked) [Compound 67]		6.00 to 7.00	> 7.00
CN1C[C@H](C2CCC(C(=O)NCCOc3ccc4c(c3)C(=O)N(C3CCC(=O)NC3=O)C4=O)CC2)C[C@@H]1COc1nc(N2CC3CCC(C2)N3)c2cnc(-c3cc(O)cc4ccccc34)c(F)c2n1 (some centres unmarked) [Compound 53]		< 6.00	> 7.00
C#Cc1c(F)ccc2cc(O)cc(-c3ncc4c(N5CC6CCC(C5)N6)nc(OCC5(CN6CC7(C6)CN(c6ccc8c(c6)CN(C6CCC(=O)NC6=O)C8=O)C7)CC5)nc4c3F)c12 (centres unmarked) [Compound 117]			> 7.00
C#Cc1cccc2cccc(-c3ncc4c(N5CC6CCC(C5)N6)nc(OC[C@H]5CC[C@@H](CN6CCN(CC7CCN(c8cc9c(cc8F)C(=O)N(C8CCC(=O)NC8=O)C9=O)CC7)CC6)N5C)nc4c3F)c12 (some centres unmarked) [Compound 55]		< 6.00	> 7.00
C#Cc1c(F)ccc2cc(O)cc(-c3ncc4c(N5CCN(C(=O)C=C)[C@@H](CC#N)C5)nc(OCC5(CN6CCN(CC7CCN(c8ccc9c(c8)CN(C8CCC(=O)NC8=O)C9=O)CC7)CC6)CC5)nc4c3F)c12 (some centres unmarked) [Compound 109]			> 7.00
CN1C[C@H](N2CCC(C(=O)Nc3ccc4c(c3)CN(C3CCC(=O)NC3=O)C4=O)CC2)C[C@@H]1COc1nc(N2CC3CCC(C2)N3)c2cnc(-c3cccc4cccc(Cl)c34)c(F)c2n1 (some centres unmarked) [Compound 49]			6.00 to 7.00
Cc1cccc2cccc(-c3ncc4c(N5CC6CCC(C5)N6)nc(OCC5(CN6CCN(CC7CCN(c8ccc9c(c8)C(=O)N(C8CCC(=O)NC8=O)C9=O)CC7)CC6)CC5)nc4c3F)c12 (centres unmarked) [Compound 58]			> 7.00
O=C1CCC(N2C(=O)c3ccc(N4CCN(C(=O)C5CCN(CC6(COc7nc(N8CC9CCC(C8)N9)c8cnc(-c9cc(O)cc%10ccccc9%10)c(F)c8n7)CC6)CC5)CC4)cc3C2=O)C(=O)N1 (centres unmarked) [Compound 76]		< 6.00	> 7.00
C#Cc1c(F)ccc2cc(O)cc(-c3nc(OC)c4c(N5CCN(C)[C@@H](CC#N)C5)nc(OCC5(CN6CCN(CC7CCN(c8ccc9c(c8)CN(C8CCC(=O)NC8=O)C9=O)CC7)CC6)CC5)nc4c3F)c12 (some centres unmarked) [Compound 106]	< 6.00		> 7.00
C#Cc1c(F)ccc2cc(O)cc(-c3ncc4c(N5CC6CCC(C5)N6)nc(OCC5(CN6CCC7(CC6)CN(c6ccc8c(c6)CN(C6CCC(=O)NC6=O)C8=O)C7)CC5)nc4c3F)c12 (centres unmarked) [Compound 116]			> 7.00
C#Cc1cccc2cc(O)cc(-c3ncc4c(N5CC6CCC(C5)N6)nc(OC[C@H]5CC[C@@H](CN6CCN(CC7CCN(c8ccc9c(c8)C(=O)N(C8CCC(=O)NC8=O)C9=O)CC7)CC6)N5C)nc4c3F)c12 (some centres unmarked) [Compound 68]		< 6.00	> 7.00
Cc1cccc(-c2ncc3c(N4CC5CCC(C4)N5)nc(OCC4(CN5CCN(CC6CCN(c7ccc8c(c7)C(=O)N(C7CCC(=O)NC7=O)C8=O)CC6)CC5)CC4)nc3c2F)c1C (centres unmarked) [Compound 63]		< 6.00	> 7.00
C#Cc1cccc2cccc(-c3ncc4c(N5CC6CCC(C5)N6)nc(OC[C@H]5CC[C@@H](CN6CCN(CCC7CCN(c8ccc9c(c8)C(=O)N(C8CCC(=O)NC8=O)C9=O)CC7)CC6)N5C)nc4c3F)c12 (some centres unmarked) [Compound 62]		6.00 to 7.00	> 7.00
